Reference: PubChem BioAssay AID248 (DTP/NCI, 2004)
Several values for one entry are separate records, joined by “and”; a condition that tells them apart may be missing. Equal entries are not always repeated. Inconclusive results and toxic doses are left out. No stated cut-off is given here; in the data, active means T/C of 150% or more; inactive means T/C below 125%.

System: L1210 leukemia ip in BDF1 mice, survival T/C
Assay: NCI In Vivo Anticancer Drug Screen. Data for tumor model L1210 Leukemia (intraperitoneal) in B6D2F1 (BDF1) mice
Conditions: endpoint: mean survival time, higher = longer survival
In short: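 Transplanted-tumor mice were given test agent; controls received vehicle only. Survival readings from the two groups were divided (treated over control).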

[1] = dose: 50.0 mg/kg/injection, schedule: Q01DX009 (ip), vehicle: saline
[2] = dose: 100.0 mg/kg/injection, schedule: Q01DX009 (ip), vehicle: saline
[3] = dose: 100.0 mg/kg/injection, schedule: Q04DX003 (ip), vehicle: saline
[4] = dose: 200.0 mg/kg/injection, schedule: Q04DX003 (ip), vehicle: saline
[5] = dose: 50.0 mg/kg/injection, schedule: Q04DX002 (ip), vehicle: Klucel (hydroxypropylcellulose) (HPC)
[6] = dose: 100.0 mg/kg/injection, schedule: Q04DX002 (ip), vehicle: Klucel (hydroxypropylcellulose) (HPC)
[7] = dose: 200.0 mg/kg/injection, schedule: Q04DX002 (ip), vehicle: Klucel (hydroxypropylcellulose) (HPC)
[8] = dose: 100.0 mg/kg/injection, schedule: Q04DX003 (ip), vehicle: saline with Tween-80
[9] = dose: 200.0 mg/kg/injection, schedule: Q04DX003 (ip), vehicle: saline with Tween-80
[10] = dose: 400.0 mg/kg/injection, schedule: Q04DX003 (ip), vehicle: saline
[11] = dose: 100.0 mg/kg/injection, schedule: Q04DX002 (ip), vehicle: saline
[12] = dose: 200.0 mg/kg/injection, schedule: Q04DX002 (ip), vehicle: saline
[13] = dose: 100.0 mg/kg/injection, schedule: Q01DX009 (ip), vehicle: saline with Tween-80
[14] = dose: 100.0 mg/kg/injection, schedule: Q01DX009 (ip), vehicle: Klucel (hydroxypropylcellulose) (HPC)
[15] = dose: 200.0 mg/kg/injection, schedule: Q01DX009 (ip), vehicle: Klucel (hydroxypropylcellulose) (HPC)
[16] = dose: 200.0 mg/kg/injection, schedule: Q01DX009 (ip), vehicle: saline
[17] = dose: 100.0 mg/kg/injection, schedule: Q01DX001 (ip), vehicle: water
[18] = dose: 400.0 mg/kg/injection, schedule: Q04DX003 (ip), vehicle: saline with Tween-80
[19] = dose: 75.0 mg/kg/injection, schedule: Q01DX001 (ip), vehicle: saline
[20] = dose: 150.0 mg/kg/injection, schedule: Q01DX001 (ip), vehicle: saline

Measured: T/C

CCCNCCN
inactive: [1] 98 % of control | [2] 102 % of control | [3] 97 % of control | [4] 99 % of control

COc1cc2cc3c4cc(OC)c(OC)cc4cc[n+]3c(CCC(=O)O)c2cc1OC (tested in a mixture with another compound)
inactive: [5] 103 % of control | [6] 98 % of control | [7] 103 % of control

C=COC(=O)NC(CCSC)C(=O)O (centres undefined)
inactive: dose: 50.0 mg/kg/injection, schedule: Q01DX001 (ip), vehicle: saline 101 % of control | dose: 100.0 mg/kg/injection, schedule: Q01DX001 (ip), vehicle: saline 98 % of control

c1ccc(NC(Nc2ccccn2)c2ccncc2)nc1
inactive: [8] 104 % of control | [9] 111 % of control

CCSc1cc(C(=O)O)cc([N+](=O)[O-])c1
inactive: [3] 104 % of control | [4] 93 % of control | [10] 94 % of control

C/C=C/C(=O)Nc1cccc(C(F)(F)F)c1
inactive: dose: 25.0 mg/kg/injection, schedule: Q01DX009 (ip), vehicle: other 92 % of control | dose: 50.0 mg/kg/injection, schedule: Q01DX009 (ip), vehicle: other 102 % of control | dose: 100.0 mg/kg/injection, schedule: Q01DX009 (ip), vehicle: other 92 % of control and 95 % of control

CC(=O)OCCC/C(=C\c1cccc([N+](=O)[O-])c1)[N+](=O)[O-]
inactive: dose: 100.0 mg/kg/injection, schedule: Q01DX001 (ip), vehicle: other 111 % of control

COc1ccc(S(=O)(=O)N/N=C/C(=O)O)cc1
inactive: dose: 6.25 mg/kg/injection, schedule: Q01DX009 (ip), vehicle: saline with Tween-80 109 % of control | dose: 12.5 mg/kg/injection, schedule: Q01DX009 (ip), vehicle: saline with Tween-80 117 % of control

N#CC1C2CCC(C2)C1CCCNCCCC1C2CCC(C2)C1C#N (centres undefined)
inactive: [11] 97 % of control | [12] 104 % of control

CC1=C(c2ccccc2)C(c2ccccc2)=C(C)C1=O
inactive: dose: 50.0 mg/kg/injection, schedule: Q01DX001 (ip), vehicle: carboxymethylcellulose (CMC) 97 % of control | dose: 100.0 mg/kg/injection, schedule: Q01DX001 (ip), vehicle: carboxymethylcellulose (CMC) 95 % of control | dose: 200.0 mg/kg/injection, schedule: Q01DX001 (ip), vehicle: carboxymethylcellulose (CMC) 89 % of control | dose: 400.0 mg/kg/injection, schedule: Q01DX001 (ip), vehicle: carboxymethylcellulose (CMC) 95 % of control

O=C(O)c1ccc(CCCCCCl)cc1
inactive: [13] 103 % of control | dose: 200.0 mg/kg/injection, schedule: Q01DX009 (ip), vehicle: saline with Tween-80 111 % of control

CC(=O)Oc1ccc(Cl)cc1Cl
inactive: [8] 100 % of control | [9] 97 % of control

CCOC(=O)C(O)C(Cl)(c1ccccc1)C(C)C (centres undefined)
inactive: [11] 100 % of control | [12] 114 % of control | dose: 400.0 mg/kg/injection, schedule: Q04DX002 (ip), vehicle: saline 111 % of control

CCC(C(=O)C(C)C(O)C(C)CCc1ccc(C)c(O)c1C(=O)O)C1OC(CC)(C2CCC(O)(CC)C(C)O2)CC1C (centres undefined)
inactive: dose: 6.25 mg/kg/injection, schedule: Q04DX002 (ip), vehicle: saline 100 % of control | dose: 12.5 mg/kg/injection, schedule: Q04DX002 (ip), vehicle: saline 92 % of control | dose: 25.0 mg/kg/injection, schedule: Q04DX002 (ip), vehicle: saline 92 % of control | dose: 50.0 mg/kg/injection, schedule: Q04DX002 (ip), vehicle: saline 103 % of control

O=Cc1cn[nH]c1-c1ccccc1
inactive: [14] 97 % of control | dose: 100.0 mg/kg/injection, schedule: Q04DX003 (ip), vehicle: Klucel (hydroxypropylcellulose) (HPC) 95 % of control | [15] 97 % of control | dose: 200.0 mg/kg/injection, schedule: Q04DX003 (ip), vehicle: Klucel (hydroxypropylcellulose) (HPC) 98 % of control | dose: 400.0 mg/kg/injection, schedule: Q01DX009 (ip), vehicle: Klucel (hydroxypropylcellulose) (HPC) 106 % of control | dose: 400.0 mg/kg/injection, schedule: Q04DX003 (ip), vehicle: Klucel (hydroxypropylcellulose) (HPC) 98 % of control

C[C@]12CC[C@@H]3c4ccc(O)cc4CC[C@H]3[C@@H]1CCC(=O)O2
inactive: [2] 97 % of control | [3] 97 % of control | [16] 95 % of control | [4] 90 % of control | dose: 400.0 mg/kg/injection, schedule: Q01DX009 (ip), vehicle: saline 95 % of control | [10] 100 % of control

NC(=O)c1cc(C(N)=O)cc([N+](=O)[O-])c1
inactive: dose: 50.0 mg/kg/injection, schedule: Q01DX009 (ip), vehicle: saline with Tween-80 101 % of control | [13] 101 % of control | [8] 100 % of control | [9] 96 % of control

C=C1CC2(CCC23COC(=O)C3=C)OC1=O (centres undefined)
inactive: dose: 1.56 mg/kg/injection, schedule: Q01DX001 (ip), vehicle: other 98 % of control | dose: 3.12 mg/kg/injection, schedule: Q01DX001 (ip), vehicle: other 102 % of control and 109 % of control | dose: 6.25 mg/kg/injection, schedule: Q01DX001 (ip), vehicle: other 105 % of control and 121 % of control | dose: 12.5 mg/kg/injection, schedule: Q01DX001 (ip), vehicle: other 102 % of control

CCCCCC(C)NCCOC(=O)c1ccc(N)cc1 (centres undefined)
inactive: dose: 75.0 mg/kg/injection, schedule: Q01DX001 (ip), vehicle: other 98 % of control

CC(C)=CCC/C(C)=C\CC1=C(O)c2ccccc2C(=O)C1=O
inactive: [17] 96 % of control | dose: 100.0 mg/kg/injection, schedule: Q04DX003 (ip), vehicle: acetone 102 % of control | dose: 200.0 mg/kg/injection, schedule: Q01DX001 (ip), vehicle: water 100 % of control | dose: 200.0 mg/kg/injection, schedule: Q04DX003 (ip), vehicle: acetone 94 % of control

COC(=O)C1C2OC(C(Br)C2Br)C1C(=O)O (centres undefined)
inactive: [8] 100 % of control | [9] 98 % of control | [18] 96 % of control

Cc1ccc(S/N=C\c2ccccc2O)cc1
inactive: [5] 93 % of control | [6] 100 % of control | [7] 107 % of control and 91 % of control | dose: 400.0 mg/kg/injection, schedule: Q04DX002 (ip), vehicle: Klucel (hydroxypropylcellulose) (HPC) 91 % of control

CCOC(=O)C(=O)C1C(=O)C(=O)C(c2ccccc2)C1=O (centres undefined)
inactive: dose: 75.0 mg/kg/injection, schedule: Q01DX001 (ip), vehicle: carboxymethylcellulose (CMC) 104 % of control | dose: 150.0 mg/kg/injection, schedule: Q01DX001 (ip), vehicle: carboxymethylcellulose (CMC) 100 % of control | dose: 300.0 mg/kg/injection, schedule: Q01DX001 (ip), vehicle: carboxymethylcellulose (CMC) 105 % of control

C1=Cc2ccccc2/C1=C/c1ccc(/C=C2\C=Cc3ccccc32)cc1
inactive: [8] 92 % of control | [9] 89 % of control | [18] 89 % of control

CCCCCCCCCC(C)NC(=O)CCl (centres undefined)
inactive: dose: 50.0 mg/kg/injection, schedule: Q01DX009 (ip), vehicle: Klucel (hydroxypropylcellulose) (HPC) 87 % of control | [14] 97 % of control | [15] 90 % of control

CC1CC(C)(C)N=C(CCC2CCCCCC2=O)O1 (centres undefined)
inactive: dose: 25.0 mg/kg/injection, schedule: Q01DX009 (ip), vehicle: saline 98 % of control | [1] 102 % of control | dose: 50.0 mg/kg/injection, schedule: Q04DX003 (ip), vehicle: saline with Tween-80 96 % of control | [2] 100 % of control | [8] 93 % of control | [16] 101 % of control | [9] 96 % of control

Nc1n[nH]c2cc(=O)[nH]c(O)c12
inactive: [19] 98 % of control | [20] 93 % of control | dose: 300.0 mg/kg/injection, schedule: Q01DX001 (ip), vehicle: saline 94 % of control

OC1CC2CCC(C1)N2 (centres undefined)
inactive: [19] 95 % of control | [20] 91 % of control

O=C1C(=O)c2ccccc2C(O)=C1CC=C1CCCCC1
inactive: [17] 100 % of control | dose: 100.0 mg/kg/injection, schedule: Q01DX009 (ip), vehicle: water 103 % of control | dose: 200.0 mg/kg/injection, schedule: Q01DX009 (ip), vehicle: water 98 % of control | dose: 400.0 mg/kg/injection, schedule: Q01DX001 (ip), vehicle: water 108 % of control
